Measured values published in EPA's ToxValDB 9.5.
Values joined by “and” are separate entries in the source; they are usually repeats but may differ in a detail not shown here. Equal entries are not always repeated.

How the values were obtained:
Rattus norvegicus [1] = conditions: oral, gavage; for NOEL: M; for NOAEL: M/F
Rattus norvegicus [2] = test system: Rattus norvegicus
Rattus norvegicus [3] = conditions: oral, gavage; for LD50: acute
[4] = acute, duration: 4 hours, inhalation, M, Bone Marrow: Bone Marrow Histopathology + Spleen: Spleen Histopathology + Whole Body: Clinical Signs
[5] = reproduction developmental, duration: 9 days, inhalation, F, generation: P0, P0: Whole Body: Maternal Body Weight, Initial
[6] = reproduction developmental, duration: 9 days, inhalation, M/F, generation: F1, F1: Vertebra: Thoracic Centrum, Dipartite Ossification
[7] = reproduction developmental, duration: 14 days, oral, gavage, F, Crj:CD, generation: P0, P0: Uterus: >=6 Days of Diestrus + P0: Uterus: Estrous Cycle, Length + P0: Whole Body: Delivery Index + P0: Whole Body: Length of Gestation…
[8] = reproduction developmental, duration: 14 days, oral, gavage, M/F, Crj:CD, generation: F1, F1: Whole Body: Live Birth Index + F1: Whole Body: Live Pups Born + F1: Whole Body: Survival + F1: Whole Body: Viability Index
[9] = reproduction developmental, duration: 42 days, oral, gavage, M, Crj:CD, generation: P0, P0: Whole Body: Percent Mating
[10] = short-term, duration: 14 days, oral, gavage, F, Crj:CD, Liver: Cholesterol (CHOL), Total
[11] = subchronic, duration: 42 days, oral, gavage, M, Crj:CD, Adrenal: Adrenal Gland Weight, Absolute + Liver: Aspartate Aminotransferase (AST) + Spleen: Spleen Weight, Relative

Which NOEL (Rattus norvegicus [1]; subchronic, Sprague-Dawley, Clinical Observation: Prone position Lateral position Locomotor activity decrease + Functional Observational Battery: Prone position Lateral…) does the source give for OC(C(F)(F)F)C(F)(F)F [2H-Perfluoro-2-propanol] here?
Its NOEL is 10 mg/kg-day.

And the LOAEL (Rattus norvegicus [2]; [4])?
Its LOAEL is 5500 mg/m3.

What about the NOAEL (Rattus norvegicus [2]; [4]) of the same compound?
The NOAEL was 1370 mg/m3 and 1380 mg/m3.

And the LOAEL (Rattus norvegicus [2]; acute, duration: 4 hours, inhalation, M, Brain: Brain Histopathology + Brain: Brain Pathology + Duodenum: Duodenum Histopathology + Heart: Heart Histopathology + Kidney: Kidney …)?
Its LOAEL is 1370 mg/m3 and 1380 mg/m3.

And the NOAEL (Rattus norvegicus [2]; developmental, duration: 9 days, inhalation, M/F, generation: F1, F1: Rib: Rib, Wavy + F1: Skin: Petechial Hemorrhages + F1: Skin: Subcutaneous Hematoma, Small + F1: Skull: Hyoid Body, Unossified + F1: …)?
The NOAEL was 1380 mg/m3 and 1370 mg/m3.

What about the NOAEL (Rattus norvegicus [2]; reproduction developmental, duration: 9 days, inhalation, F, generation: P0, P0: Ovary: Corpora Lutea + P0: Uterus: Mean Implantations/Litter + P0: Uterus: Resorptions, Early + P0: Uterus: Resorptions, Late + P0: …) of the same compound?
The NOAEL was 1380 mg/m3 and 1370 mg/m3.

And the LOAEL (Rattus norvegicus [2]; [5])?
The LOAEL was 1380 mg/m3 and 1370 mg/m3.

And the NOAEL (Rattus norvegicus [2]; [5])?
Its NOAEL is 207 mg/m3 and 206 mg/m3.

What about the LOAEL (Rattus norvegicus [2]; reproduction developmental, duration: 9 days, inhalation, M/F, generation: F1, F1: Kidney: Hydronephrosis + F1: Rib: 14th Rudimentary Rib) of the same compound?
The LOAEL was 207 mg/m3 and 206 mg/m3.

And the LOAEL (Rattus norvegicus [2]; [6])?
The LOAEL was 1380 mg/m3 and 1370 mg/m3.

What about the NOAEL (Rattus norvegicus [2]; [6]) of the same compound?
The NOAEL was 207 mg/m3 and 206 mg/m3.

And the LOAEL (Rattus norvegicus [2]; reproduction developmental, duration: 14 days, oral, gavage, F, Crj:CD, generation: F1, F1: Whole Body: Pup Weight Relative to Litter)?
The LOAEL was 300 mg/kg-day.

And the NOAEL (Rattus norvegicus [2]; reproduction developmental, duration: 14 days, oral, gavage, F, Crj:CD, generation: P0, P0: Ovary: Corpora Lutea + P0: Uterus: Estrous Cycle, Irregular + P0: Uterus: Estrous Stages/ 21 Days + P0: Uterus: Implantation + P0: …)?
Its NOAEL is 300 mg/kg-day.

And the LOAEL (Rattus norvegicus [2]; [7])?
The LOAEL was 300 mg/kg-day.

What about the NOAEL (Rattus norvegicus [2]; [7]) of the same compound?
Its NOAEL is 60 mg/kg-day.

What about the LOAEL (Rattus norvegicus [2]; [8]) of the same compound?
The LOAEL was 300 mg/kg-day.

And the NOAEL (Rattus norvegicus [2]; [8])?
Its NOAEL is 60 mg/kg-day.

And the NOAEL (Rattus norvegicus [2]; reproduction developmental, duration: 14 days, oral, gavage, M/F, Crj:CD, generation: F1, F1: Whole Body: Male Pups per Pups Sexed + F1: Whole Body: Male Pups per Pups Sexed, Live Offspring)?
The NOAEL was 300 mg/kg-day.

What about the LOAEL (Rattus norvegicus [2]; reproduction developmental, duration: 14 days, oral, gavage, M, Crj:CD, generation: F1, F1: Whole Body: Pup Weight Relative to Litter) of the same compound?
Its LOAEL is 300 mg/kg-day.

What about the NOAEL (Rattus norvegicus [2]; reproduction developmental, duration: 42 days, oral, gavage, M, Crj:CD, generation: P0, P0: Whole Body: Days of Cohabitation + P0: Whole Body: Fertility Index) of the same compound?
The NOAEL was 300 mg/kg-day.

What about the LOAEL (Rattus norvegicus [2]; [9]) of the same compound?
The LOAEL was 300 mg/kg-day.

What about the NOAEL (Rattus norvegicus [2]; [9]) of the same compound?
Its NOAEL is 60 mg/kg-day.

What about the NOAEL (Rattus norvegicus [2]; short-term, duration: 14 days, oral, gavage, F, Crj:CD, Adrenal: Adrenal Gland Histopathology + Adrenal: Adrenal Gland Weight, Absolute + Adrenal: Adrenal Gland Weight, Relative + Basophils + …) of the same compound?
Its NOAEL is 300 mg/kg-day.

And the LOAEL (Rattus norvegicus [2]; short-term, duration: 14 days, oral, gavage, F, Crj:CD, Calcium (CA) + Central Nervous System: CNS Depression + Liver: Hepatocellular Hypertrophy + Liver: Liver Weight, Relative, Recovery + …)?
Its LOAEL is 300 mg/kg-day.

And the NOAEL (Rattus norvegicus [2]; short-term, duration: 14 days, oral, gavage, F, Crj:CD, Calcium (CA) + Central Nervous System: CNS Depression + Liver: Hepatocellular Hypertrophy + Peripheral Nervous System: Aerial Righting …)?
Its NOAEL is 60 mg/kg-day.

What about the LOAEL (Rattus norvegicus [2]; [10]) of the same compound?
The LOAEL was 60 mg/kg-day.

And the NOAEL (Rattus norvegicus [2]; [10])?
The NOAEL was 10 mg/kg-day.

And the NOAEL (Rattus norvegicus [2]; subchronic, duration: 42 days, oral, gavage, M, Crj:CD, Adrenal: Adrenal Gland Histopathology + Adrenal: Adrenal Gland Weight, Absolute, Recovery + Adrenal: Adrenal Gland Weight, Relative, …)?
Its NOAEL is 300 mg/kg-day.

And the LOAEL (Rattus norvegicus [2]; [11])?
The LOAEL was 60 mg/kg-day.

And the NOAEL (Rattus norvegicus [2]; [11])?
Its NOAEL is 10 mg/kg-day.

What about the LOAEL (Rattus norvegicus [2]; subchronic, duration: 42 days, oral, gavage, M, Crj:CD, Adrenal: Adrenal Gland Weight, Relative) of the same compound?
Its LOAEL is 10 mg/kg-day.

And the LOAEL (Rattus norvegicus [2]; subchronic, duration: 42 days, oral, gavage, M, Crj:CD, Blood: Platelet Count (PLT) + Blood: Reticulocytes + Brain: Brain Weight, Absolute + Brain: Brain Weight, Absolute, Recovery + Central …)?
Its LOAEL is 300 mg/kg-day.

And the NOAEL (Rattus norvegicus [2]; subchronic, duration: 42 days, oral, gavage, M, Crj:CD, Blood: Platelet Count (PLT) + Blood: Reticulocytes + Brain: Brain Weight, Absolute + Central Nervous System: CNS Depression + Kidney: Urea …)?
The NOAEL was 60 mg/kg-day.

How did the NOAEL (Rattus norvegicus [1]; short-term, duration: 29 days, Wistar, Deaths + Clinical Observation: Rough fur Reduced condition Difficulties in breathing Distended abdomen Salivation + Body Weight Changes: …) turn out when Cc1ccc(Cl)cc1 [4-Chlorotoluene] was run?
The NOAEL was 200 mg/kg-day.

What about the NOAEL (Rattus norvegicus [1]; subchronic, duration: 90 days, Sprague-Dawley, Deaths + Clinical Observation: Languid behavior Prostration Sensitivity to touch Tremor Epistaxis Wheezing Dyspnea + Body Weight Changes: …) of the same compound?
Its NOAEL is 200 mg/kg-day.

What about the LD50 (Rattus norvegicus [3]; Sprague-Dawley) of the same compound?
Its LD50 is 2350 mg/kg and 1900 mg/kg.

Which results are given for Cc1cc(S(=O)(=O)[O-])c(N=Nc2c([O-])c(C(=O)O)cc3ccccc23)cc1Cl.[Ca+2] [C.I. Pigment Red 48, calcium salt (1:1)]?
NOEL (Rattus norvegicus [1]; subchronic, Sprague-Dawley, Functional Observational Battery: Grip strength of hind limbs + Relative Organ Weight: Kidneys increase + Histopathology: Kidneys/ proximal …): 200 mg/kg-day; LD50 (Rattus norvegicus [3]): ≥ 5000 mg/kg

O=C1N(CO)C(O)C(O)N1CO (stereo unspecified) [Dimethyloldihydroxyethyleneurea] was tested. Which NOAEL (Rattus norvegicus [1]; subchronic, duration: 90 days, Fischer 344, Clinical Observation: Yellow discoloration, abdominal/anogenital region Soft stool Hypoactivity Grasping reflex decrease, Hypothermic …) did it give?
Its NOAEL is 3000 mg/kg-day.

What about the NOAEL (Rattus norvegicus [3]; developmental, duration: 10 days, Wistar) of the same compound?
Its NOAEL is 640 mg/kg-day.

What about the NOAEL (Rattus norvegicus [3]; reproduction developmental, duration: 14 days, Fischer 344) of the same compound?
Its NOAEL is 4000 mg/kg-day.
